Assay results reported in paper PMC10996005, “Identification and Development of Cyclic Peptide Inhibitors of Hypoxia Inducible Factors 1 and 2 That Disrupt Hypoxia-Response Signaling in Cancer Cells” (Journal of the American Chemical Society, 2024).
Where a SMILES comes first, the peptide text is derived from it. [ ]: non-standard residue; d: D form. Phe(4-I) = N[C@@H](Cc1ccc(I)cc1)C(=O)O

Experiments:
[1] = tested on: CAIX and VEGF genes in MCF-7 cells; assay: qPCR of hypoxia-response genes in MCF-7 cells; assay type: cell-based; details: hypoxic MCF-7 cells, 50 μM, vs DMSO-treated hypoxic cells
Description: The effect of our lead inhibitor on hypoxia-response signaling was measured by qPCR in cancer cell lines. Cells were treated with either 2 μM of an analogue of the HIF-2-specific inhibitor belzutifan, PT2399 (control), or 50 μM of cyclo-CRLII(4-iodo)F, incubated in hypoxia for […], and the levels of the hypoxia-response genes CAIX([41],[42]) and VEGF([43]) were measured by qPCR. We observed a 51% drop in CAIX transcription and a 43% drop in VEGF transcription in hypoxic MCF-7 (breast cancer) cells treated with 50 μM of cyclo-CRLII(4-iodo)F versus hypoxic MCF-7 cells treated with DMSO only (Figure 6e). […] We also observed a 49% drop in CAIX expression in hypoxic HeLa (cervical cancer) cells treated with cyclo-CRLII(4-iodo)F (Figure S9b). […] We observed a 35% drop in HIF-2-driven VEGF transcription in 786-O cells treated with 50 μM of cyclo-CRLII(4-iodo)F compared to a 50% decrease in 786-O cells treated with PT2399. […]
Realtime PCR (qPCR) Assay
Cells were plated on 6cm dishes at 80% confluency and incubated overnight under normoxic conditions. The cells were then treated with compound and incubated for 18 hours in hypoxic conditions. After treatment, the cells were washed with PBS and lysed under hypoxic conditions. The total RNA was extracted from the cells using a commercial RNA extraction kit (Fisher Scientific) following the manufacturer's instructions. A commercial reverse transcription kit (Promega) was used to generate cDNA. The MyTaq™ Mix master mix and appropriate primers targeting CAIX and VEGF were used to perform the qPCR reaction using a qPCR machine (Bio-Rad).

HIF-1α in Panc-1 cells = molecular target: T1, HIF-1α in Panc-1 cells (Homo sapiens, UniProt Q16665); assay: Cellular thermal shift assay; assay type: cell-based; details: 40 μM, samples heated to 54 °C
T1 construct: endogenous in cells; host or cells: PANC-1
Description: Next, we used a cellular-thermal shift assay[40] to assess whether our lead molecule binds to HIF-1α in the intracellular environment. We observed a 2.9 ± 0.4-fold increased level of HIF-1α protein in Panc-1 (pancreatic cancer) cells treated with 40 μM cyclo-CRLII(4-iodo)F compared to DMSO control in samples heated to 54 °C, indicating intracellular binding of this compound to its protein target (Figure 6d). […]
highest pLDDT score was relaxes with the inbuilt amber energy minimisation and used for subsequent docking steps. HADDOCK docking was performed by assigning the HIF-1α PAS-B domain (residues 214-335) and CRLIIF residues 1, 5 and 6 as active residue binders and clustered using the inbuilt RMSD clustering algorithm.
Cellular Thermal Shift Assay
Pancreatic cancer cells (PANC-1) were plated in a T75 flask at 80% confluency overnight under normoxic conditions. The cells were then dosed with compound and incubated for 18 hours under hypoxic conditions (1% O2, 94% N2, 5% CO2, 80% Humidity). The cells were subsequently washed with PBS and divided into several aliquots, each of which was exposed to different temperatures (45°C, 48°C, 51°C, and 54°C) for 30 seconds on a thermal cycler (Bio-Rad). […] The concentration of the extracted proteins was measured using the BCA Protein Assay Kit (Sigma) following the manufacturer's instructions. […]

T-Rex-293 cells = assay: CytoTox-Glo cytotoxicity / viability assay; assay type: cell-based, human; details: doses up to 75 μM
From the text: Following in vitro characterization and optimization of binding, we next assessed the effect of our cyclic peptides in mammalian cells. A cell line with a stably integrated reporter was constructed, in which the expression of yellow fluorescent protein (YFP) was placed under the control of a HRE. Thus, hypoxia would be expected to increase YFP expression (and subsequent fluorescence) in these cells, whereas treatment with a cell-permeable HIF inhibitor would be expected to reduce this fluorescence signal. A fusion cassette was designed containing the YFP gene preceded by three copies of the HRE sequence. This cassette was stably integrated into T-REx-293 cells as previously described.[12] […] The effect of this compound on the viability of T-Rex-293 was assessed with no effect observed at doses up to 75 μM (Figure S9a). […] It should be noted that the relative activity of each compound in this assay will be a combination of its cell permeability and HIF-inhibiting activity. […] We therefore continued to further characterize the cell activity of the 4-iodo-phenylalanine derivative. […]
Pancreatic cancer cells (PANC-1) were plated in a T75 flask at 80% confluency overnight under normoxic conditions. […] The concentration of the extracted proteins was measured using the BCA Protein Assay Kit (Sigma) following the manufacturer's instructions. […]

T1 sequence (Q16665 whole entry): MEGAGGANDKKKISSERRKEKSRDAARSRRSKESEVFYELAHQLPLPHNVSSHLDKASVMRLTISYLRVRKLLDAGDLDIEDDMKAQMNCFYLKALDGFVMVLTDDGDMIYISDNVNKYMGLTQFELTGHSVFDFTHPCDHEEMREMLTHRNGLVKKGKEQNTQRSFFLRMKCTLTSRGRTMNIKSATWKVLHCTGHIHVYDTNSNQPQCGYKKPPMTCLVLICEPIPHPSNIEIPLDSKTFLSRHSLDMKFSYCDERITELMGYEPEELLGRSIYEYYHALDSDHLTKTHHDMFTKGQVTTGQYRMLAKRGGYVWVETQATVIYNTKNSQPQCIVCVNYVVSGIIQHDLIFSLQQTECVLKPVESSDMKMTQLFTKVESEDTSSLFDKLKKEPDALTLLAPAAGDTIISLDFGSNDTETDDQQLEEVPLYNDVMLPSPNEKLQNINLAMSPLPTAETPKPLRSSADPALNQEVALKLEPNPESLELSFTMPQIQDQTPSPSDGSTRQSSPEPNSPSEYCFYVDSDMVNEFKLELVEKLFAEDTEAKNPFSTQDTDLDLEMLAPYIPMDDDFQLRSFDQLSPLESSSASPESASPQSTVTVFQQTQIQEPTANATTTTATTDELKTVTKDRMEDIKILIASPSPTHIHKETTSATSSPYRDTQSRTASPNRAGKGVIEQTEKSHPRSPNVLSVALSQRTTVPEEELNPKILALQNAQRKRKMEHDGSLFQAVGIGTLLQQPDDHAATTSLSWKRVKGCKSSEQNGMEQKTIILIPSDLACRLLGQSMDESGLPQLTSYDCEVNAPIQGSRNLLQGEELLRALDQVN

CC[C@H](C)[C@@H]1NC(=O)[C@H](CC(C)C)NC(=O)[C@H](CCCNC(=N)N)NC(=O)[C@H](CS)NC(=O)[C@H](Cc2ccc(I)cc2)NC(=O)[C@H]([C@@H](C)CC)NC1=O [cyclo-CRLII(4-iodo)F] (cyclo(CRLII[Phe(4-I)]))
drop in CAIX transcription [1]: 51% | drop in VEGF transcription [1]: 43% | increased level of HIF-1α protein compared to DMSO control (HIF-1α in Panc-1 cells): 2.9 ± 0.4 fold | effect on the viability of T-Rex-293 (T-Rex-293 cells): no effect
